From ChEMBL document CHEMBL1142033, “Synthesis of isonicotinic acid N'-arylidene-N-[2-oxo-2-(4-aryl-piperazin-1-yl)-ethyl]-hydrazides as antituberculosis agents” (2005) come the findings set out here.

Values after ≈ are worked out from the molar mass of the structure shown. Bounds are passed on as bounds.

The test system of experiment [1] is Mycobacterium tuberculosis. The experiment in a line: Minimum inhibitory concentration against Mycobacterium tuberculosis H37Rv ATCC 27294. The format is functional.
Experiment [2] has as its system Mycobacterium tuberculosis. Description: Minimum inhibitory concentration against sensitive Mycobacterium tuberculosis clinical isolates; N=9. In kind it is functional.
For experiment [3], the system named is Mycobacterium tuberculosis. Description: Minimum inhibitory concentration against sensitive Mycobacterium tuberculosis clinical isolates; N=9; range=8-16. The format is functional.
Experiment [4] deals with Mycobacterium tuberculosis. The experiment in a line: microbe, parasite or virus in culture.
Description: Minimum inhibitory concentration against sensitive Mycobacterium tuberculosis clinical isolates; N=9; Range=0.03-0.5
For experiment [5], the system named is Mycobacterium tuberculosis. The experiment in a line: Minimum inhibitory concentration against sensitive Mycobacterium tuberculosis clinical isolates; N=9; range=2-4. In kind it is functional.
Experiment [6] relates to Mycobacterium tuberculosis. Description: Minimum inhibitory concentration against sensitive Mycobacterium tuberculosis clinical isolates; N=9; range=1-4. The format is functional.
The subject of experiment [7] is Mycobacterium tuberculosis. Description: Minimum inhibitory concentration against sensitive Mycobacterium tuberculosis clinical isolates; N=9; Range = 0.12-0.25. The format is functional.
The test system of experiment [8] is Mycobacterium tuberculosis. The experiment in a line: Minimum inhibitory concentration against sensitive Mycobacterium tuberculosis clinical isolates; N=9; range=4-8. In kind it is functional.

Regarding `O=C(CN(/N=C/c1ccccc1Cl)C(=O)c1ccncc1)N1CCN(c2ccc([N+](=O)[O-])cc2)CC1`, the MIC in experiment [1] and in experiment [2] was > 16 µg/mL each time.
With `O=C(CN(/N=C/c1ccc(Cl)cc1Cl)C(=O)c1ccncc1)N1CCN(c2cccc(C(F)(F)F)c2)CC1`, the MIC in experiment [1] and in experiment [2] was > 16 µg/mL each time.
For `O=C(CN(/N=C/c1ccccc1Cl)C(=O)c1ccncc1)N1CCN(c2cccc(Cl)c2Cl)CC1`, the MIC in experiment [1] and in experiment [2] was > 16 µg/mL in each case.
`Cc1cccc(N2CCN(C(=O)CN(/N=C/c3ccc(Cl)cc3Cl)C(=O)c3ccncc3)CC2)c1`: the MIC in experiment [1] and in experiment [2] was > 16 µg/mL in each case.
Turning to `O=C(CN(/N=C/c1ccc(Cl)cc1Cl)C(=O)c1ccncc1)N1CCN(c2ccc(Cl)cc2)CC1`, the MIC in experiment [1] and in experiment [2] was 8 µg/mL (≈ 15.1 µM) in each case.
Consider `O=C(CN(/N=C/c1ccc(Cl)cc1Cl)C(=O)c1ccncc1)N1CCN(c2ccc([N+](=O)[O-])cc2)CC1`, for which the MIC in experiment [1] and in experiment [2] was > 16 µg/mL in each case.
Consider `O=C(CN(/N=C/c1ccccc1Cl)C(=O)c1ccncc1)N1CCN(c2cccc(Cl)c2)CC1`, for which the MIC in experiment [1] and in experiment [2] was > 16 µg/mL throughout.
For the compound `O=C(CN(/N=C/c1ccc(Cl)cc1)C(=O)c1ccncc1)N1CCN(c2ccc(F)cc2)CC1`, the MIC in experiment [1] and in experiment [2] was > 16 µg/mL throughout.
As to `O=C(CN(/N=C/c1cccc(Cl)c1)C(=O)c1ccncc1)N1CCN(c2ccc(F)cc2)CC1`, the MIC in experiment [1] and in experiment [2] was > 16 µg/mL in each case.
For the compound `O=C(CN(/N=C/c1ccccc1Cl)C(=O)c1ccncc1)N1CCN(c2ccccc2)CC1`, the results for the MIC in experiment [1] and in experiment [3] were > 16 µg/mL and 16 µg/mL (≈ 34.6 µM), respectively.
On to `Cc1cccc(N2CCN(C(=O)CN(/N=C/c3cccc(Cl)c3)C(=O)c3ccncc3)CC2)c1`, for which the MIC in experiment [1] and in experiment [2] was > 16 µg/mL throughout.
For `COc1ccccc1N1CCN(C(=O)CN(/N=C/c2cccc(Cl)c2)C(=O)c2ccncc2)CC1`, the MIC in experiment [1] and in experiment [2] was > 16 µg/mL each time.
For `O=C(CN(/N=C/c1ccc(Cl)cc1Cl)C(=O)c1ccncc1)N1CCN(Cc2ccc3c(c2)OCO3)CC1`, the “Range of MIC” value in experiment [1] came to 1 µg/mL. In experiment [2], this compound displayed an MIC of 0.5 µg/mL (≈ 0.902 µM).
For `CO[C@H]1/C=C/O[C@@]2(C)Oc3c(C)c(O)c4c(O)c(c(/C=N/N5CCN(C)CC5)c(O)c4c3C2=O)NC(=O)/C(C)=C\C=C\[C@H](C)[C@H](O)[C@@H](C)[C@@H](O)[C@@H](C)[C@H](OC(C)=O)[C@@H]1C` [RIFAMPIN], the MIC in experiment [1] is 0.125 µg/mL (≈ 0.152 µM); in experiment [4] it was 0.5 µg/mL (≈ 0.608 µM).
For `COc1ccccc1N1CCN(C(=O)CN(/N=C/c2ccc(Cl)cc2Cl)C(=O)c2ccncc2)CC1`, the MIC in experiment [1] and in experiment [2] was > 16 µg/mL throughout.
On to `O=C(CN(/N=C/c1cccc(Cl)c1)C(=O)c1ccncc1)N1CCN(Cc2ccc3c(c2)OCO3)CC1`, for which the MIC in experiment [5] and in experiment [1] was 4 µg/mL (≈ 7.69 µM) in each case.
`O=C(CN(/N=C/c1cccc(Cl)c1)C(=O)c1ccncc1)N1CCN(c2ccccc2)CC1`: the MIC in experiment [1] and in experiment [2] was > 16 µg/mL throughout.
For the compound `O=C(CN(/N=C/c1cccc(Cl)c1)C(=O)c1ccncc1)N1CCN(c2ccc([N+](=O)[O-])cc2)CC1`, the MIC in experiment [1] and in experiment [2] was > 16 µg/mL in each case.
For `O=C(CN(/N=C/c1cccc(Cl)c1)C(=O)c1ccncc1)N1CCN(c2ccc(Cl)cc2)CC1`, the MIC in experiment [1] and in experiment [2] was > 16 µg/mL in each case.
Take `O=C(CN(/N=C/c1ccc(Cl)cc1Cl)C(=O)c1ccncc1)N1CCN(c2ccc(F)cc2)CC1`: the values for the MIC in experiment [1] and in experiment [3] were > 16 µg/mL and 16 µg/mL (≈ 31.1 µM), respectively.
On to `O=C(CN(/N=C/c1ccc(Cl)cc1Cl)C(=O)c1ccncc1)N1CCN(c2ccccc2)CC1`, for which the MIC in experiment [1] and in experiment [2] was > 16 µg/mL in each case.
Consider `O=C(CN(/N=C/c1ccccc1Cl)C(=O)c1ccncc1)N1CCN(c2cccc(C(F)(F)F)c2)CC1`, for which the MIC in experiment [1] and in experiment [2] was > 16 µg/mL each time.
Consider `O=C(CN(/N=C/c1ccc(Cl)cc1)C(=O)c1ccncc1)N1CCN(c2ccc(Cl)cc2)CC1`, for which the MIC in experiment [1] and in experiment [2] was > 16 µg/mL throughout.
`O=C(CN(/N=C/c1ccc(Cl)cc1)C(=O)c1ccncc1)N1CCN(Cc2ccc3c(c2)OCO3)CC1`: the figures for the MIC in experiment [1] and in experiment [6] were 2 µg/mL (≈ 3.85 µM) and 4 µg/mL (≈ 7.69 µM), respectively.
`COc1ccccc1N1CCN(C(=O)CN(/N=C/c2ccc(Cl)cc2)C(=O)c2ccncc2)CC1`: the MIC in experiment [1] and in experiment [2] was > 16 µg/mL each time.
With `O=C(CN(/N=C/c1ccccc1Cl)C(=O)c1ccncc1)N1CCN(c2ccc(F)cc2)CC1`, the MIC in experiment [1] and in experiment [2] was > 16 µg/mL throughout.
As to `O=C(CN(/N=C/c1ccc(Cl)cc1Cl)C(=O)c1ccncc1)N1CCN(c2cccc(Cl)c2)CC1`, the MIC in experiment [1] and in experiment [2] was > 16 µg/mL throughout.
For `NNC(=O)c1ccncc1` [ISONIAZID], the MIC in experiment [1] and in experiment [7] was 0.25 µg/mL (≈ 1.82 µM) each time.
With `O=C(CN(/N=C/c1ccc(Cl)cc1)C(=O)c1ccncc1)N1CCN(c2ccc([N+](=O)[O-])cc2)CC1`, the MIC in experiment [1] and in experiment [2] was > 16 µg/mL in each case.
As for `O=C(CN(/N=C/c1ccccc1Cl)C(=O)c1ccncc1)N1CCN(Cc2ccc3c(c2)OCO3)CC1`, the figures for the MIC in experiment [1] and in experiment [8] were 4 µg/mL (≈ 7.69 µM) and 8 µg/mL (≈ 15.4 µM), respectively.
Regarding `COc1ccccc1N1CCN(C(=O)CN(/N=C/c2ccccc2Cl)C(=O)c2ccncc2)CC1`, the MIC in experiment [1] and in experiment [2] was > 16 µg/mL in each case.
Take `O=C(CN(/N=C/c1ccccc1Cl)C(=O)c1ccncc1)N1CCN(c2ccc(Cl)cc2)CC1`: the MIC in experiment [1] and in experiment [2] was > 16 µg/mL throughout.
In the case of `O=C(CN(/N=C/c1cccc(Cl)c1)C(=O)c1ccncc1)N1CCN(c2cccc(Cl)c2)CC1`, the MIC in experiment [1] and in experiment [2] was > 16 µg/mL in each case.
On to `Cc1cccc(N2CCN(C(=O)CN(/N=C/c3ccccc3Cl)C(=O)c3ccncc3)CC2)c1`, for which the MIC in experiment [1] and in experiment [2] was > 16 µg/mL throughout.
